Experimental data as given in patent US10259810B2, “N-sulfonylated pyrazolo[3,4-b]pyridin-6-carboxamides and method of use” (AbbVie S.à.r.l., priority 2015, dated 2019).

Legend:
ΔF508-CFTR [1] = target: T1, ΔF508-CFTR (Homo sapiens, UniProt P13569, DEL508-508); test: CFTR cell surface levels using HRP-tagged ΔF508-CFTR expressing CFBE cells, in the presence of a co-corrector; type: cell-based
T1 construct: host or cells: CFBE41o-, doxycycline-inducible
Method in brief: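 Chemiluminescent read-out of surface HRP (15 min, dark) after PBS washes. Activity is normalized as 100×(sample−DMSO)/(3 μM co-corrector alone−DMSO).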

ΔF508-CFTR [2] = target: T1, ΔF508-CFTR; test: CFTR cell surface levels using HRP-tagged ΔF508-CFTR expressing CFBE cells, intrinsic corrector capacity; type: cell-based; parameters: % Activation: concentration or dose not given beside the values
Method in brief: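 Surface ΔF508-CFTR was measured as HRP chemiluminescence from an extracellular-loop-4 tag, expressed as percent activity between DMSO and a […] corrector control.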

[3] = HRP-tagged ΔF508-CFTR CFBE cells, in the presence of 3 μM co-corrector
[4] = HRP-tagged ΔF508-CFTR CFBE cells, in the presence of 3 μM co-corrector, read-out: EC50
[5] = HRP-tagged ΔF508-CFTR expressing CFBE41o- cells, compound alone (intrinsic corrector capacity), 20 hours at 33° C.
[6] = HRP-tagged ΔF508-CFTR expressing CFBE41o- cells, compound alone (intrinsic corrector capacity), 20 hours at 33° C., read-out: EC50

T1 sequence (P13569 with tags, fused parts or gaps DEL508-508): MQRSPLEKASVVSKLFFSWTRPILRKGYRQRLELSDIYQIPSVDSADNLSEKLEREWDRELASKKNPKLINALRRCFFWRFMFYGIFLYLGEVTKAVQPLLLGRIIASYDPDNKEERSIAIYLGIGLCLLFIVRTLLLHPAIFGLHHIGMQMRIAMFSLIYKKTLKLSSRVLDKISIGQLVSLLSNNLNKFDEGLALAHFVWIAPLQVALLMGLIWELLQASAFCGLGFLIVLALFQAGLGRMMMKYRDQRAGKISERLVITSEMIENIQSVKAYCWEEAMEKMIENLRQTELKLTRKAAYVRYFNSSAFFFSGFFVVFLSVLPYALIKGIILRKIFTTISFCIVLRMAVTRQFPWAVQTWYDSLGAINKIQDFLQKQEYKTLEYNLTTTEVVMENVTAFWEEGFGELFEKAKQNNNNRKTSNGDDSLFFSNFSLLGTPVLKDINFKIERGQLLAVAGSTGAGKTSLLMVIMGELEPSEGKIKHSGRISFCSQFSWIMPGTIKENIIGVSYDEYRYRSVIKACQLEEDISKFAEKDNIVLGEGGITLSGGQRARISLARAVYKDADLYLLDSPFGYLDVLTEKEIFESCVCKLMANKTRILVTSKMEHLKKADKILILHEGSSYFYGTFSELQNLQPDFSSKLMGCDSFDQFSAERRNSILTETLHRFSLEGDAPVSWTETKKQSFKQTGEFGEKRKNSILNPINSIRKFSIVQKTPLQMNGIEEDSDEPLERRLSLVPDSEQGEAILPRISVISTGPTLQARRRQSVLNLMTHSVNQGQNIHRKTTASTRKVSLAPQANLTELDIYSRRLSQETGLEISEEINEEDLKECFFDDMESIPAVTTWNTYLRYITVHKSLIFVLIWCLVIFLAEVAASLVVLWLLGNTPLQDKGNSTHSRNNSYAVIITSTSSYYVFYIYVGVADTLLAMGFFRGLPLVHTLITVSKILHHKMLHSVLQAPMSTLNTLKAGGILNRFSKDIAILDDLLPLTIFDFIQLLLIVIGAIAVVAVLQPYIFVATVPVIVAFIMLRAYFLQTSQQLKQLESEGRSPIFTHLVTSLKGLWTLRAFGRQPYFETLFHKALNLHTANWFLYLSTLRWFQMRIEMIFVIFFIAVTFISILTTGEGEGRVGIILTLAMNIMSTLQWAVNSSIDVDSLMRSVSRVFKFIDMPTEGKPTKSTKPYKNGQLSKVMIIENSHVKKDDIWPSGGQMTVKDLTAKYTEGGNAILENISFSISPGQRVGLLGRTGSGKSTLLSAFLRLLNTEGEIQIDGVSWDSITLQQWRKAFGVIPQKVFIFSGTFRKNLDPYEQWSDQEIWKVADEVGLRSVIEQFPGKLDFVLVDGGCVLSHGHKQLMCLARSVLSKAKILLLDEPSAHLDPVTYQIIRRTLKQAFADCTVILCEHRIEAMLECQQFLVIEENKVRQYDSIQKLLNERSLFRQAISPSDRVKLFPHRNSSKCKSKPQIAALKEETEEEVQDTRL

SMILES	% Activation (ΔF508-CFTR [1]; [3])	EC50 (ΔF508-CFTR [1]; [4])	% Activation (ΔF508-CFTR [2]; [5])	EC50 (ΔF508-CFTR [2]; [6])	EC50 (ΔF508-CFTR [1])	EC50 (ΔF508-CFTR [2])
COCC1CCN(c2cc(C(=O)NS(=O)(=O)C3(C)CC3)nc3c2c(C2CCC2)nn3-c2ccccc2)CC1 [Compound 374, 3-cyclobutyl-4-[4-(methoxymethyl)piperidin-1-yl]-N-(1-methylcyclopropane-1-sulfonyl)-1-phenyl-1H-pyrazolo[3,4-b]pyridine-6-carboxamide]	426.05%	196 nM	240.7%	254 nM		
O=C(NS(=O)(=O)N1CCOCC1)c1cc(N2CCC(CN3CCCC3)CC2)c2c(C3CCC3)nn(-c3ccccc3)c2n1 [Compound 380, 3-cyclobutyl-N-(morpholine-4-sulfonyl)-1-phenyl-4-{4-[(pyrrolidin-1-yl)methyl]piperidin-1-yl}-1H-pyrazolo[3,4-b]pyridine-6-carboxamide]	309.17%		131.7%		127 nM	279 nM
CS(=O)(=O)NC(=O)c1cc(N2CCC(N3CCOCC3)CC2)c2c(C3CCC3)nn(-c3ccc(C(F)(F)F)cc3)c2n1 [Compound 510, 3-cyclobutyl-N-(methanesulfonyl)-4-[4-(morpholin-4-yl)piperidin-1-yl]-1-[4-(trifluoromethyl)phenyl]-1H-pyrazolo[3,4-b]pyridine-6-carboxamide]	428.8%	171 nM	234.9%	298 nM		
COCC1CCN(c2cc(C(=O)NS(=O)(=O)CCN3C(=O)c4ccccc4C3=O)nc3c2c(C2CCC2)nn3-c2ccccc2)CC1 [Compound 260, 3-cyclobutyl-N-[2-(1,3-dioxoisoindolin-2-yl)ethylsulfonyl]-4-[4-(methoxymethyl)-1-piperidyl]-1-phenyl-pyrazolo[3,4-b]pyridine-6-carboxamide]	664.07%	130 nM	473.35%	1870 nM		
CS(=O)(=O)NC(=O)c1cc(-c2ccc(N3CCC(C#N)CC3)nc2)c2c(n1)n(-c1ccccc1)nc2[C@H]1C[C@H](C)C1 [Compound 257, 4-[6-(4-cyanopiperidin-1-yl)pyridin-3-yl]-N-(methanesulfonyl)-3-(trans-3-methylcyclobutyl)-1-phenyl-1H-pyrazolo[3,4-b]pyridine-6-carboxamide]	451.25%	74.3 nM	272.4%	370 nM		
CCCCOC1CCN(c2cc(C(=O)NS(C)(=O)=O)nc3c2c(C(C)C)nn3-c2ccc(F)cc2)CC1 [Compound 172, 4-(4-butoxypiperidin-1-yl)-1-(4-fluorophenyl)-N-(methanesulfonyl)-3-(propan-2-yl)-1H-pyrazolo[3,4-b]pyridine-6-carboxamide]	462.4%	207 nM	280.03%	330 nM		
CN(C)S(=O)(=O)NC(=O)c1cc(N2CCC(N3CCOC(C)(C)C3)CC2)c2c(C3CCC3)nn(-c3ccc(F)cc3)c2n1 [Compound 573, 3-cyclobutyl-4-[4-(2,2-dimethylmorpholin-4-yl)piperidin-1-yl]-N-(dimethylsulfamoyl)-1-(4-fluorophenyl)-1H-pyrazolo[3,4-b]pyridine-6-carboxamide]	467.57%	58.5 nM	270.53%	104 nM		
CCS(=O)(=O)NC(=O)c1cc(N2CCC(CN3CCOCC3)CC2)c2c(C3CCC3)nn(-c3ccc(F)cc3)c2n1 [Compound 494, 3-cyclobutyl-N-(ethanesulfonyl)-1-(4-fluorophenyl)-4-{4-[(morpholin-4-yl)methyl]piperidin-1-yl}-1H-pyrazolo[3,4-b]pyridine-6-carboxamide]	551.8%	37.1 nM	315.4%	110 nM		
COCC1CCN(c2cc(C(=O)NS(=O)(=O)c3cn(C)cn3)nc3c2c(C2CCC2)nn3-c2ccccc2)CC1 [Compound 286, 3-cyclobutyl-4-[4-(methoxymethyl)piperidin-1-yl]-N-(1-methyl-1H-imidazole-4-sulfonyl)-1-phenyl-1H-pyrazolo[3,4-b]pyridine-6-carboxamide]	500.55%	159 nM	264%	327 nM		
CN(C)S(=O)(=O)NC(=O)c1cc(N2CCC(N3CCOCC3)CC2)c2c(C3CCC3)nn(-c3cccc(OC(F)F)c3)c2n1 [Compound 652, 3-cyclobutyl-1-[3-(difluoromethoxy)phenyl]-N-(dimethylsulfamoyl)-4-[4-(morpholin-4-yl)piperidin-1-yl]-1H-pyrazolo[3,4-b]pyridine-6-carboxamide]	499.65%	24.9 nM	289.03%	84.1 nM		
Cc1nn(-c2cccc(C(F)(F)F)c2)c2nc(C(=O)NS(C)(=O)=O)cc(-c3ccc(N4CCOCC4)nc3)c12 [Compound 57, N-(methanesulfonyl)-3-methyl-4-[6-(morpholin-4-yl)pyridin-3-yl]-1-[3-(trifluoromethyl)phenyl]-1H-pyrazolo[3,4-b]pyridine-6-carboxamide]	440%	657 nM	219.65%	1020 nM		
Cc1cccc(-n2nc(C(C)C)c3c(N4CCC(S(C)(=O)=O)CC4)cc(C(=O)NS(C)(=O)=O)nc32)c1 [Compound 165, N-(methanesulfonyl)-4-[4-(methanesulfonyl)piperidin-1-yl]-1-(3-methylphenyl)-3-(propan-2-yl)-1H-pyrazolo[3,4-b]pyridine-6-carboxamide]	534.2%	885 nM	373.95%	1780 nM		
CC(C)Oc1nn(C2CCCCC2)c2nc(C(=O)NS(C)(=O)=O)cc(-c3ccc(CN4CCN(C)CC45COC5)cc3)c12 [Compound 641, 1-cyclohexyl-N-(methanesulfonyl)-4-{4-[(8-methyl-2-oxa-5,8-diazaspiro[3.5]nonan-5-yl)methyl]phenyl}-3-[(propan-2-yl)oxy]-1H-pyrazolo[3,4-b]pyridine-6-carboxamide]	443.12%	46.3 nM	205.35%	74.9 nM		
COCC1CCN(c2cc(C(=O)NS(=O)(=O)C3CCN(C(=O)OCc4ccccc4)C3)nc3c2c(C2CCC2)nn3-c2ccccc2)CC1 (centres unmarked) [Compound 377, benzyl 3-({3-cyclobutyl-4-[4-(methoxymethyl)piperidin-1-yl]-1-phenyl-1H-pyrazolo[3,4-b]pyridine-6-carbonyl}sulfamoyl)pyrrolidine-1-carboxylate]	485.55%	103 nM	261.3%	129 nM		
O=C(NS(=O)(=O)C1CC1)c1cc(N2CCC(N3CCN(C4CC4)CC3)CC2)c2c(C3CCC3)nn(-c3ccccc3)c2n1 [Compound 550, 3-cyclobutyl-N-(cyclopropanesulfonyl)-4-[4-(4-cyclopropylpiperazin-1-yl)piperidin-1-yl]-1-phenyl-1H-pyrazolo[3,4-b]pyridine-6-carboxamide]	605.45%	173 nM	347%	361 nM		
CS(=O)(=O)NC(=O)c1cc(-c2ccc(N3CCC(C#N)CC3)nc2)c2c(OC3COC3)nn(-c3ccccc3)c2n1 [Compound 300, 4-[6-(4-cyanopiperidin-1-yl)pyridin-3-yl]-N-(methanesulfonyl)-3-[(oxetan-3-yl)oxy]-1-phenyl-1H-pyrazolo[3,4-b]pyridine-6-carboxamide]	266.55%	109 nM	119.9%	309 nM		
O=C(NS(=O)(=O)C1CC1)c1cc(N2CCC(N3CCOCC3)CC2)c2c(C3CCC3)nn(-c3ccc(F)cc3)c2n1 [Compound 507, 3-cyclobutyl-N-(cyclopropanesulfonyl)-1-(4-fluorophenyl)-4-[4-(morpholin-4-yl)piperidin-1-yl]-1H-pyrazolo[3,4-b]pyridine-6-carboxamide]	580.4%	95.4 nM	309.4%	137 nM		
COCC1CCN(S(=O)(=O)NC(=O)c2cc(N3CCC(N4CCOCC4)CC3)c3c(C4CCC4)nn(-c4ccc(F)cc4)c3n2)CC1 [Compound 540, 3-cyclobutyl-1-(4-fluorophenyl)-N-[4-(methoxymethyl)piperidine-1-sulfonyl]-4-[4-(morpholin-4-yl)piperidin-1-yl]-1H-pyrazolo[3,4-b]pyridine-6-carboxamide]	443.3%	103 nM	248.8%	123 nM		
CONS(=O)(=O)NC(=O)c1cc(N2CCC(N3CCOCC3)CC2)c2c(C3CCC3)nn(-c3ccc(F)cc3)c2n1 [Compound 592, 3-cyclobutyl-1-(4-fluorophenyl)-N-(methoxysulfamoyl)-4-[4-(morpholin-4-yl)piperidin-1-yl]-1H-pyrazolo[3,4-b]pyridine-6-carboxamide]	518.55%	56.8 nM	300.8%	183 nM		
CN(C)S(=O)(=O)NC(=O)c1cc(C2CCN(C3CCOCC3)CC2)c2c(C3CCC3)nn(-c3ccc(F)cc3)c2n1 [Compound 612, 3-cyclobutyl-N-(dimethylsulfamoyl)-1-(4-fluorophenyl)-4-[1-(oxan-4-yl)piperidin-4-yl]-1H-pyrazolo[3,4-b]pyridine-6-carboxamide]	320.8%	3330 nM	108.7%	876 nM		
